Like-named read-outs stand apart in the source and are kept apart here.
Target: T1, TLR7 (Homo sapiens, UniProt Q9NYK1)
T1 sequence (Q9NYK1 27-1049): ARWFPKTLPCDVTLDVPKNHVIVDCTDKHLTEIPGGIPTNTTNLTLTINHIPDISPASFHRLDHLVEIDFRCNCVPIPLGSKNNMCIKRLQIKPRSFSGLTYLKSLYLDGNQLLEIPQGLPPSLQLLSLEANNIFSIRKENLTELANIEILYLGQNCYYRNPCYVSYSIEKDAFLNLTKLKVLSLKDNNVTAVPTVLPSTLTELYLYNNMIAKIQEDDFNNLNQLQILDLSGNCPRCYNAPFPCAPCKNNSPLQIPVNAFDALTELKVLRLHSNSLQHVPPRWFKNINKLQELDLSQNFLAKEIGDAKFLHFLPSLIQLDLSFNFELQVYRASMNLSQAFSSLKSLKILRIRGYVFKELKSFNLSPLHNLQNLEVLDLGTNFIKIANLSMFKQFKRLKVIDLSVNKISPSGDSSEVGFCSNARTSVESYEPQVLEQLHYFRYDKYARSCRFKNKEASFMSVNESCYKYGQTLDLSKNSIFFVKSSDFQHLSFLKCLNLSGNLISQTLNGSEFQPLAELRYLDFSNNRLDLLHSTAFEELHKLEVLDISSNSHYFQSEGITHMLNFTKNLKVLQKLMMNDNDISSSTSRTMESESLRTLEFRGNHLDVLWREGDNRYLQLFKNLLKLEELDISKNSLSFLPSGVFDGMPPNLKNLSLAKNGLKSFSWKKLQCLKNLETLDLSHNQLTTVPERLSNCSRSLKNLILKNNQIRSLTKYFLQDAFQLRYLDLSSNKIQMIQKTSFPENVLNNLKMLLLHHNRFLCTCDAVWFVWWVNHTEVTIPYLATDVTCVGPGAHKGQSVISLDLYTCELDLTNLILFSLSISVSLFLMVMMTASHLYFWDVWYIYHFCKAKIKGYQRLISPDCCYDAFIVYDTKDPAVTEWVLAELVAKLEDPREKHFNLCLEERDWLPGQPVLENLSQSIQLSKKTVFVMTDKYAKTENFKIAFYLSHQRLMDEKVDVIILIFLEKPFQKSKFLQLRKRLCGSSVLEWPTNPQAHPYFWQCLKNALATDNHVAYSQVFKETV
Assay: Human TLR7 reporter gene inhibitory activity assay (NF-κB/SEAP HEK293)
Type: cell-based
Set-up: host or cells: HEK293 (TLR7/NF-κB/SEAPorter)
Details: for IC50 / human TLR7 activity, reporter signal: R848 200 nM
Experimental: Compounds were dissolved in dimethyl sulfoxide. Before stimulation with compound, Human TLR7 reporter cell line (TLR7/NF-κB/SEAPorter^TM HEK293 cell, Novus Biological, USA), human TLR8 reporter cell line (TLR8/NF-κB/SEAPorter^TM HEK293 cell, Novus Biological), and human TLR9 reporter cell line (TLR9/NF-κB/SEAPorter^TM HEK293 cell, Novus Biological) were seeded in 96-well microtiter plate (AGC techno glass, Japan) at 5 × 10^4 cells/well in DMEM (GIBCO, United Kingdam) with 10 % fetal bovine serum (GIBCO), and 10 ug/ml Blastcidin S HCl (GIBCO) and incubated at 37 °C in 5% CO2. The plates were incubated over-night and then stimulated with various concentrations of compound. […] After 30 min, R848 (human TLR7/8 ligand, synthesized at Sumitomo Dainippon Pharma, Japan) or CpG2006 (human TLR9 ligand, Hokkaido System Science Co., Ltd., Japan) added to each well, wherein each final concentration were adjusted to 200 nM R848 (human TLR7), 30 μM R848 (human TLR8), or 500 nM CpG2006 (human TLR9). The plates were then incubated an additional 20 ± 1 h at 37 °C in 5% CO2 and then the secreted embryonic alkaline phosphatase (SEAP) activity was measured as activation of human TLR7, 8, and 9. The SEAP activity was evaluated as follows: pNPP (Invitrogen, USA) was added to the incubated sample (50 μl/well); after 15 min, 4 M sodium hydroxide solution (nacalai tesque, Japan) was added thereto (50 μl/well) to quench the reaction; and the absorbance of each sample was measured at 405 nm with microplate reader SpectraMax M4 (Molecular Devices, USA).

[1] = read-out: TLR7 inhibitory activity IC50

| SMILES | IC50 (read-out: TLR7 inhibitory potency IC50) [nM] | human TLR7 activity, reporter signal (compound 0.0001 nM (as headed)) | human TLR7 activity, reporter signal (compound 0.001 nM (as headed)) | human TLR7 activity, reporter signal (compound 0.003 nM (as headed)) | human TLR7 activity, reporter signal (compound 0.01 nM (as headed)) | human TLR7 activity, reporter signal (compound 0.03 nM (as headed)) | human TLR7 activity, reporter signal (compound 0.1 nM (as headed)) | human TLR7 activity, reporter signal (compound 0.3 nM (as headed)) | human TLR7 activity, reporter signal (compound 1 nM (as headed)) | human TLR7 activity, reporter signal (compound 3 nM (as headed)) | human TLR7 activity, reporter signal (compound 10 nM (as headed)) | human TLR7 activity, reporter signal (compound 30 nM (as headed)) | human TLR7 activity, reporter signal (compound 100 nM (as headed)) | selectivity for TLR7 over TLR8 and TLR9 | IC50 [1] [nM] |
| --- | --- | --- | --- | --- | --- | --- | --- | --- | --- | --- | --- | --- | --- | --- | --- |
| CCCCOc1nc(N)c2nc(-c3cccnc3)n(Cc3ccccc3)c2n1 [Cpd-5] | 5000 | 2.067 | 1.898 | 1.879 | 1.8207 | 1.853 | 1.8291 | 1.986 | 1.7924 | 1.5762 | 1.162 | 0.6856 | 0.7605 | – | – |
| CCOc1nc(N)c2nc(-c3cncc(F)c3)n(Cc3ccc(CN4C[C@@H]5C[C@H]4CN5C)cc3)c2n1 [Cpd-6] | – | 1.983 | 1.907 | 1.643 | 1.354 | 0.8446 | 0.3393 | 0.1771 | 0.006275 | -0.01137 | -0.02343 | -0.03198 | -0.04843 | high TLR7 selectivity | 25 |
| CCOc1nc(C)c2nc(-c3cncc(F)c3)n(Cc3ccc(CN4C[C@@H]5C[C@H]4CN5C)cc3)c2n1 [Cpd-7] | – | 1.983 | 1.718 | 1.528 | 1.179 | 0.5917 | 0.1271 | 0.01692 | -0.02107 | -0.03277 | -0.02908 | -0.03703 | -0.01692 | high TLR7 selectivity | 15 |
| CCN(CCO)CCCC(C)Nc1ccnc2cc(Cl)ccc12 (stereo not drawn) [HCQ, hydroxychloroquine, reference compound] | – | 1.977 | – | – | 1.7427 | 1.684 | 1.7194 | 1.681 | 1.5856 | 1.338 | 1.109 | 0.2449 | 0.0133 | – | – |

— publication PMC7562955 (Nature Communications, 2020)
